Laboratory results taken from ChEMBL document CHEMBL4402573, “Discovery and Optimization of α-Mangostin Derivatives as Novel PDE4 Inhibitors for the Treatment of Vascular Dementia” (J Med Chem, 2020).
Calls of active or inactive are those of the source. The rule behind the calls is not given here.

Legend:
Mus musculus [1] = assay: Anti-VaD activity against UCCAO-induced spatial memory deficient C57BL/6J mouse model assessed as improvement in spatial learning and memory by measuring increase in frequency of platform area crossings at 10 mg/kg, po administered for 21 days by Morris water maze test; format: functional, organism-based
[2] = Half life in Sprague-Dawley rat at 2.5 mg/kg, iv measured upto 24 hrs by LC-MS/MS analysis; format: ADME, organism-based; settings: in vivo
[3] = target: High affinity cGMP-specific 3',5'-cyclic phosphodiesterase 9A (Homo sapiens, UniProt O76083); assay: Inhibition of human PDE9A2 (181 to 506 residues) expressed in Escherichia coli BL21 codon-plus cells using [3H]cGMP as substrate incubated for 15 mins by liquid scintillation counting method
[4] = Oral bioavailability in Sprague-Dawley rat at 5 mg/kg measured upto 24 hrs by LC-MS/MS analysis; format: ADME, organism-based; settings: in vivo
[5] = AUC(0 to infinity) in Sprague-Dawley rat at 2.5 mg/kg, iv measured upto 24 hrs by LC-MS/MS analysis; format: ADME, organism-based; design: dose 2.5 mg/kg, route intravenous, time infinity; settings: in vivo
Homo sapiens [6] = organism: Homo sapiens; assay: Selectivity index, ratio of IC50 for human PDE2A (580 to 919 residues) expressed in Escherichia coli BL21 codon-plus cells to IC50 for human PDE4D2 (86 to 413 residues) expressed in Escherichia coli BL21 codon-plus cells
[7] = AUC(0 to t) in Sprague-Dawley rat at 5 mg/kg, po measured upto 24 hrs by LC-MS/MS analysis; format: ADME, organism-based; design: dose 5 mg/kg, time < 24 hr, route oral; settings: in vivo
Homo sapiens [8] = organism: Homo sapiens; assay: Selectivity index, ratio of IC50 for human PDE5A1 (535 to 860 residues) expressed in Escherichia coli BL21 codon-plus cells to IC50 for human PDE4D2 (86 to 413 residues) expressed in Escherichia coli BL21 codon-plus cells
RAW264.7 = assay: Antiinflammatory activity in mouse RAW264.7 assessed as reduction in LPS-induced NO production incubated for 24 hrs by Griess method; format: functional, cell-based
[9] = target: 3',5'-cyclic-AMP phosphodiesterase 4B (Homo sapiens, UniProt Q07343); assay: Inhibition of human PDE4B2 (152 to 487 residues) expressed in Escherichia coli BL21 codon-plus cells using [3H]cAMP as substrate incubated for 15 mins by liquid scintillation counting method
Cytochrome P450 2B6 = Cytochrome P450 2B6 (Homo sapiens, UniProt P20813); assay: Inhibition of human CYP2B6; format: ADME
[10] = Acute toxicity in Kunming mouse at >=1.5 g/kg, po administered as single dose and measured for 14 days; format: organism-based; settings: in vivo, 1500 mg/kg, 336 h
Homo sapiens [11] = organism: Homo sapiens; assay: Selectivity index, ratio of IC50 for human PDE8A1 (480 to 820 residues) expressed in Escherichia coli BL21 codon-plus cells to IC50 for human PDE4D2 (86 to 413 residues) expressed in Escherichia coli BL21 codon-plus cells
[12] = Cmax in Sprague-Dawley rat at 5 mg/kg, po measured upto 24 hrs by LC-MS/MS analysis; format: ADME, organism-based; design: dose 5 mg/kg, route oral; settings: in vivo
[13] = Cmax in Sprague-Dawley rat at 2.5 mg/kg, iv measured upto 24 hrs by LC-MS/MS analysis; format: ADME, organism-based; design: dose 2.5 mg/kg, route intravenous; settings: in vivo
[14] = target: cGMP-inhibited 3',5'-cyclic phosphodiesterase 3A (Homo sapiens, UniProt Q14432); assay: Inhibition of human PDE3A (679 to 1087 residues) expressed in Escherichia coli BL21 codon-plus cells using [3H]cAMP as substrate incubated for 15 mins by liquid scintillation counting method
[15] = AUC(0 to t) in Sprague-Dawley rat at 2.5 mg/kg, iv measured upto 24 hrs by LC-MS/MS analysis; format: ADME, organism-based; design: dose 2.5 mg/kg, time < 24 hr, route intravenous; settings: in vivo
[16] = Protein binding in rat plasma at 1 uM by LC-MS/MS analysis; format: ADME, cell-free; settings: read-out: PPB
Homo sapiens [17] = organism: Homo sapiens; assay: Selectivity index, ratio of IC50 for human PDE10A2 (449 to 770 residues) expressed in Escherichia coli BL21 codon-plus cells to IC50 for human PDE4D2 (86 to 413 residues) expressed in Escherichia coli BL21 codon-plus cells
Cytochrome P450 3A4 = Cytochrome P450 3A4 (Homo sapiens, UniProt P08684); assay: Inhibition of human CYP3A4; format: ADME
[18] = target: cAMP and cAMP-inhibited cGMP 3',5'-cyclic phosphodiesterase 10A (Homo sapiens, UniProt Q9Y233); assay: Inhibition of human PDE10A2 (449 to 770 residues) expressed in Escherichia coli BL21 codon-plus cells using [3H]cAMP as substrate incubated for 15 mins followed by substrate addition by liquid scintillation counting method
Mus musculus [19] = assay: Anti-VaD activity against UCCAO-induced spatial memory deficient C57BL/6J mouse model assessed as improvement in spatial learning and memory by measuring decrease in error time at 10 mg/kg, po administered for 21 days by passive avoidance test; format: functional, organism-based
Cytochrome P450 1A2 = Cytochrome P450 1A2 (Homo sapiens, UniProt P05177); assay: Inhibition of human CYP1A2; format: ADME
Mus musculus [20] = assay: Anti-VaD activity against UCCAO-induced spatial memory deficient C57BL/6J mouse model assessed as improvement in spatial learning and memory by measuring increase in residence time on the platform at 10 mg/kg, po administered for 21 days by Morris water maze test; format: functional, organism-based
[21] = target: Dual specificity calcium/calmodulin-dependent 3',5'-cyclic nucleotide phosphodiesterase 1B (Homo sapiens, UniProt Q01064); assay: Inhibition of human PDE1B (10 to 487 residues) expressed in Escherichia coli BL21 codon-plus cells using [3H]cAMP as substrate incubated for 15 mins by liquid scintillation counting method
[22] = target: cGMP-specific 3',5'-cyclic phosphodiesterase (Homo sapiens, UniProt O76074); assay: Inhibition of human PDE5A1 (535 to 860 residues) expressed in Escherichia coli BL21 codon-plus cells using [3H]cGMP as substrate incubated for 15 mins by liquid scintillation counting method
[23] = Stability in rat liver microsomes assessed as half life at 0.5 uM; format: ADME, Microsome
[24] = target: High affinity 3',5'-cyclic-AMP phosphodiesterase 7A (Homo sapiens, UniProt Q13946); assay: Inhibition of human PDE7A1 (130 to 482 residues) expressed in Escherichia coli BL21 codon-plus cells using [3H]cAMP as substrate incubated for 15 mins by liquid scintillation counting method
[25] = Toxicity in Beagle dog assessed as animals exhibiting emesis at 5 mg/kg, po observed for 180 mins; format: organism-based, Canis lupus familiaris; settings: in vivo, 3 h
[26] = target: High affinity cAMP-specific and IBMX-insensitive 3',5'-cyclic phosphodiesterase 8A (Homo sapiens, UniProt O60658); assay: Inhibition of human PDE8A1 (480 to 820 residues) expressed in Escherichia coli BL21 codon-plus cells using [3H]cAMP as substrate incubated for 15 mins by liquid scintillation counting method
Mus musculus [27] = assay: Anti-VaD activity against UCCAO-induced spatial memory deficient C57BL/6J mouse model assessed as improvement in spatial learning and memory by measuring reduction in escape latency at 10 mg/kg, po administered for 21 days by Morris water maze test; format: functional, organism-based
[28] = Tmax in Sprague-Dawley rat at 5 mg/kg, po measured upto 24 hrs by LC-MS/MS analysis; format: ADME, organism-based; settings: in vivo

Chain of High affinity cAMP-specific and IBMX-insensitive 3',5'-cyclic phosphodiesterase 8A (O60658 whole entry, the tested form may be a part): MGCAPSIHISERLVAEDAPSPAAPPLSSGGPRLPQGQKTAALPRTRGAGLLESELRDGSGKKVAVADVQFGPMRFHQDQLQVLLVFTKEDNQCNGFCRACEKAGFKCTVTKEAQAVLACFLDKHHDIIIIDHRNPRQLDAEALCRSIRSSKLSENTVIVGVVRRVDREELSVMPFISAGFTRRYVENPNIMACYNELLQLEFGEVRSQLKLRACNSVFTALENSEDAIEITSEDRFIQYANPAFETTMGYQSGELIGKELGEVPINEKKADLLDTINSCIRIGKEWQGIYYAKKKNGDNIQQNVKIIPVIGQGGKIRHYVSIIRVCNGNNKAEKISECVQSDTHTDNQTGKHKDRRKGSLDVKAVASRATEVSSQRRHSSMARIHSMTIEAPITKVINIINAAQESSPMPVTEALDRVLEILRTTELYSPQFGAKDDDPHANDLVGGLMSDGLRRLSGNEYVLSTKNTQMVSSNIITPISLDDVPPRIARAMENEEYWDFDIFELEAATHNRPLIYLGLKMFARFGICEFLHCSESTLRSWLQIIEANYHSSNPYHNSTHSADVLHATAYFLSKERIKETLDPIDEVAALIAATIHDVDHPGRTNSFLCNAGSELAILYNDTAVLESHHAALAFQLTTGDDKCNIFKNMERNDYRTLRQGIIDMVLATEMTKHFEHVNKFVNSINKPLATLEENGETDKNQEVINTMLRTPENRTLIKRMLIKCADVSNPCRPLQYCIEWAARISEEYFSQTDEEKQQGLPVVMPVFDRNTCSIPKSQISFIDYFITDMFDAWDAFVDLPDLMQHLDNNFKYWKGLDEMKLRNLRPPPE
Chain of Dual specificity calcium/calmodulin-dependent 3',5'-cyclic nucleotide phosphodiesterase 1B (Q01064 whole entry, the tested form may be a part): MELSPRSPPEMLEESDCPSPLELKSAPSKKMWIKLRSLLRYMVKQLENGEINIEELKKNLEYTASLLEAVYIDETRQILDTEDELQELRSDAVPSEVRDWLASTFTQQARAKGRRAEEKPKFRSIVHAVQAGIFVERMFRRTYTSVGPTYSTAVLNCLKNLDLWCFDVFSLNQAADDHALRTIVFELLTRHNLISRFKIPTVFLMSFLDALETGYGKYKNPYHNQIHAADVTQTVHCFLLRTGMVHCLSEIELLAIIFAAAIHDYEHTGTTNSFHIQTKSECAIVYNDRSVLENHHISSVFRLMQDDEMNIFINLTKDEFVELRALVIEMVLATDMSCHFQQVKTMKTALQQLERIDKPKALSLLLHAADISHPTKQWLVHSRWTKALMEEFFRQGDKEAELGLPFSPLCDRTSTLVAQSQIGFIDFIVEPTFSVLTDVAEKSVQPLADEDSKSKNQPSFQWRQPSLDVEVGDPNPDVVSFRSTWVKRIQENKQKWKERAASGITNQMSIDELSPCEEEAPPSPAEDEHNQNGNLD
Chain of High affinity cGMP-specific 3',5'-cyclic phosphodiesterase 9A (O76083 whole entry, the tested form may be a part): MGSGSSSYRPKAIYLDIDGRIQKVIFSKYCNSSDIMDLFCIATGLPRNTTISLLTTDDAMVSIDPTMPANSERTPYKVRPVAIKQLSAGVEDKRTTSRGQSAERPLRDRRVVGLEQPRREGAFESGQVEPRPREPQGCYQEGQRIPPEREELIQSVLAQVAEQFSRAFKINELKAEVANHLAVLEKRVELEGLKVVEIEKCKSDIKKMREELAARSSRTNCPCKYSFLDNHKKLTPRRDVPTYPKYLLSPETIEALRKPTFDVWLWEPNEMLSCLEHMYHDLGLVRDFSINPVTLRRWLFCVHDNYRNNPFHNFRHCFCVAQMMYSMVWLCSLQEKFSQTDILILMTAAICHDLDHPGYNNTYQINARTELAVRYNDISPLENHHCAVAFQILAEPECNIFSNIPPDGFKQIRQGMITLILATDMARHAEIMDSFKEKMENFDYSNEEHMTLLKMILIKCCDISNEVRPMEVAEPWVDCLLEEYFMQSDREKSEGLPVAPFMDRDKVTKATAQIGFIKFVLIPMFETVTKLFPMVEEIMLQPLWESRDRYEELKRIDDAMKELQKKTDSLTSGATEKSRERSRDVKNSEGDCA
Chain of cAMP and cAMP-inhibited cGMP 3',5'-cyclic phosphodiesterase 10A (Q9Y233 whole entry, the tested form may be a part): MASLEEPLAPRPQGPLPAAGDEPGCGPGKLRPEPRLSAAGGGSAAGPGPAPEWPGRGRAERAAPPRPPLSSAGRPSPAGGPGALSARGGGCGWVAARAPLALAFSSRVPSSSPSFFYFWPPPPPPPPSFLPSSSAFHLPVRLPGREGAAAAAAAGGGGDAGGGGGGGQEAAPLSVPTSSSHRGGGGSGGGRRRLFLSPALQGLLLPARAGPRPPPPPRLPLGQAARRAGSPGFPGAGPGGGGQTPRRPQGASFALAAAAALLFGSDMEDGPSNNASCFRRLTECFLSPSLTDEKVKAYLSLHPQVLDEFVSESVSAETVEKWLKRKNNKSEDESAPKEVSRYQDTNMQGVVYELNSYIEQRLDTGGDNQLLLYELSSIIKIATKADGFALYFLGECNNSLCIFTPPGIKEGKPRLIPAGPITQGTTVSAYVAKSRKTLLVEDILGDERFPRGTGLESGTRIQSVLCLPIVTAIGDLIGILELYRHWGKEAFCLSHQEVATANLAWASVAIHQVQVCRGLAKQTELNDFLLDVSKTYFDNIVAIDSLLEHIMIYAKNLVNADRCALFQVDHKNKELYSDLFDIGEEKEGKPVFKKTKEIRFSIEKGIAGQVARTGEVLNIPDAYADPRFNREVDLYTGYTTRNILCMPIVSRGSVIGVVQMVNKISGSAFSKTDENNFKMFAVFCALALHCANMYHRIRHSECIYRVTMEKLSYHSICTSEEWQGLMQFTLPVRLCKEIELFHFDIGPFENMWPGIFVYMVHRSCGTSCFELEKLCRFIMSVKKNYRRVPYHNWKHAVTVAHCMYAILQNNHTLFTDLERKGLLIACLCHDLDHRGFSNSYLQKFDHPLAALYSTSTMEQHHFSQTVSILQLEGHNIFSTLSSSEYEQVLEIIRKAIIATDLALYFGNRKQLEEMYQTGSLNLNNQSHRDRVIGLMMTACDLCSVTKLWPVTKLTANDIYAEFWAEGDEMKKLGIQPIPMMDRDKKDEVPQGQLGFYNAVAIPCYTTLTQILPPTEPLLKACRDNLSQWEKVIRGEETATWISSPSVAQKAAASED
Chain of Cytochrome P450 2B6 (P20813 whole entry): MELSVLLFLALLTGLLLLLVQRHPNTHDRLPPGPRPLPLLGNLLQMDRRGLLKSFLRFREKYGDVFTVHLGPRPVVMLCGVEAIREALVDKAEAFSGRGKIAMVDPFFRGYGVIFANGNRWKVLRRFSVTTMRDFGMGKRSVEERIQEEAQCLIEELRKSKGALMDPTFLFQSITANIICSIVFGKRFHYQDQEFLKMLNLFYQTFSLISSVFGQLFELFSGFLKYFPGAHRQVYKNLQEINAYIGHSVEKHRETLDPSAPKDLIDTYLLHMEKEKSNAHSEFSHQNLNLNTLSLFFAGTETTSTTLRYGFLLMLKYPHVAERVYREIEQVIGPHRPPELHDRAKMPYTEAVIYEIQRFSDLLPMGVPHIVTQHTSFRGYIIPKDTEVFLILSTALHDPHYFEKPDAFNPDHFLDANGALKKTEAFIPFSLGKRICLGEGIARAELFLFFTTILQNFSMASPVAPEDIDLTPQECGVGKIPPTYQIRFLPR
Chain of Cytochrome P450 1A2 (P05177 whole entry): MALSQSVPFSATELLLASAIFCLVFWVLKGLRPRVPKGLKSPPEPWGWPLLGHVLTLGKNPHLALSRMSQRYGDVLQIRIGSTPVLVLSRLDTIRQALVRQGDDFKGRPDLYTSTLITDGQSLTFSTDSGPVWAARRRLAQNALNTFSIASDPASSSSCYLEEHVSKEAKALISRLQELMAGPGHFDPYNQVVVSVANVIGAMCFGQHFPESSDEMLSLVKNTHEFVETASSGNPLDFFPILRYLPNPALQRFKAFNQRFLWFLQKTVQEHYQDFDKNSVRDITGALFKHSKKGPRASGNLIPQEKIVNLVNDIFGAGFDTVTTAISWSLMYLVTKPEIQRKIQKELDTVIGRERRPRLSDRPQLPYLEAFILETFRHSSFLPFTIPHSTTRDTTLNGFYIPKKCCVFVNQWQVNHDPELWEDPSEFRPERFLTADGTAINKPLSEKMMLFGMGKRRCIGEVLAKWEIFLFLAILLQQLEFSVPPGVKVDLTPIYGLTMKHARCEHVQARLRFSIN
Chain of 3',5'-cyclic-AMP phosphodiesterase 4B (Q07343 whole entry, the tested form may be a part): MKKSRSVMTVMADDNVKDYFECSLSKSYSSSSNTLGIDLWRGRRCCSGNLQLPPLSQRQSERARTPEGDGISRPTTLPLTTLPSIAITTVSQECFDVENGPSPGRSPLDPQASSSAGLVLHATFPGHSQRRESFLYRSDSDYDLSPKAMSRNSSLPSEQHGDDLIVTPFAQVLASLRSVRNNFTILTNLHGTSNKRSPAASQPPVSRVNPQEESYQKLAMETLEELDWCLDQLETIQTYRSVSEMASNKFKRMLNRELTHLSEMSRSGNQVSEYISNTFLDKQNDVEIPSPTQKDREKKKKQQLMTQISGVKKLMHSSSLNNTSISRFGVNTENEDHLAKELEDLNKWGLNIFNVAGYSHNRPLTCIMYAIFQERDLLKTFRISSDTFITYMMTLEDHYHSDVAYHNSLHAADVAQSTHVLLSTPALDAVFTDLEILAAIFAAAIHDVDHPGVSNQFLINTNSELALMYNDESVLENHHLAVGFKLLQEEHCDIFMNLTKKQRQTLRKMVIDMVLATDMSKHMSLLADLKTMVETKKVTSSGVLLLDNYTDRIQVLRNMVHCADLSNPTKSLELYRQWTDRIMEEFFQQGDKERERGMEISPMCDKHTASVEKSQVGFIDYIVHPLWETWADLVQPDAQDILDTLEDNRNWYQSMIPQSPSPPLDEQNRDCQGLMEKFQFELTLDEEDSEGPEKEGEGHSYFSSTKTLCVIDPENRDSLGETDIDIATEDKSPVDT

With `COc1c(OCCCCCCC(=O)O)cc2oc3cc4c(c(O)c3c(=O)c2c1CC=C(C)C)C=CC(C)(C)O4` the Activity (Mus musculus [1]) was “Active”, the half-life [2] was 4.28 h and the IC50 [3] was > 10 µM. For the same molecule, the bioavailability [4] was 28%, the AUC(0-inf) [5] was 6710 ng·h/mL and the Ratio IC50 (Homo sapiens [6]) was > 580. The AUC(0-t) at 24 h [7] was 4740 ng·h/mL, the Ratio IC50 (Homo sapiens [8]) was 199 and the Activity (RAW264.7) was “Dose-dependent effect”. For the same molecule, the IC50 [9] was 0.01 µM, the IC50 (Cytochrome P450 2B6) was > 10 µM and the Activity [10] was “Non-Toxic”. For the same molecule, the Ratio IC50 (Homo sapiens [11]) was > 580, the Cmax [12] was 661 ng/mL and the Cmax [13] was 14100 ng/mL. For the same molecule, the IC50 [14] was > 10 µM, the AUC(0-t) at 24 h [15] was 6670 ng·h/mL and the fraction unbound at 1 µM [16] was 0.01. For the same molecule, the Ratio IC50 (Homo sapiens [17]) was > 580, the IC50 (Cytochrome P450 3A4) was > 10 µM and the IC50 [18] was > 10 µM. For the same molecule, the Activity (Mus musculus [19]) was “Active”, the IC50 (Cytochrome P450 1A2) was > 10 µM and the Activity (Mus musculus [20]) was “Active”. The IC50 [21] was > 10 µM, the IC50 [22] was 3.39 µM and the half-life at 0.5 µM [23] was 2.8 h. For the same molecule, the IC50 [24] was 0.62 µM, the Activity [25] was 0% and the IC50 [26] was > 10 µM. For the same molecule, the Activity (Mus musculus [27]) was “Active” and the Tmax [28] was 4.67 h.
